Reference: publication PMC9358002, “Synthesis and Discovery of Ligustrazine–Heterocycle Derivatives as Antitumor Agents” (Frontiers in Chemistry, 2022)

What was measured:
mouse fibroblast L929 = assay: MTT antiproliferative assay, L929; assay type: cell-based; settings: Mus musculus, L929, 48 h, 0–50 μM, read-out: Antiproliferative activity IC50 ± SEM, L929
Method: (§1) The in vitro antiproliferative activity of 33 TMPH compounds was evaluated by MTT assay ([Medica et al., 2022]). Five types of TNBC-related cell lines (human breast cancer MCF-7 and MDA-MB-231, mouse breast cancer 4T1, mouse fibroblast L929, and human umbilical vein endothelial HUVEC cell lines) were used. The cell lines were obtained from the Shanghai Institute of Biochemistry and Cell Biology of the Chinese Academy of Sciences (Shanghai, China). The cell lines were cultured in DMEM supplemented with 1% penicillin–streptomycin solution (100×) and 10% FBS at 37°C under a humid atmosphere containing 5% CO2. After cell passage, cryopreservation, and resuscitation, the growth-inhibitory effects against the five cell lines were determined by MTT assay. The 33 TMPH compounds and the reference control drug cisplatin were dissolved in 0.1% DMSO solution. The cell lines were maintained in 96-well plates and subjected to each test compound (0–50 μM) at 37°C for 48 h. After treatment with 1 mg/ml MTT solution for 4 h, the formazan crystals were dissolved in each well. A microplate reader (Varioskan Flash 3001, Thermo Scientific) was used to determine the cell viability at 490 nm, and each experiment was repeated four times. The collected data were expressed as the mean ± SEM. The inhibitory concentration of the 34 compounds at 50% (IC50) was calculated via concentration–inhibition relationship regression by SPSS software.

[1] = system: human breast cancer MCF-7; assay: MTT antiproliferative assay, MCF-7; assay type: cell-based; settings: Homo sapiens, MCF7, 48 h, 0–50 μM, read-out: Antiproliferative activity IC50 ± SEM, MCF-7
Method: as §1

mouse breast cancer 4T1 = assay: MTT antiproliferative assay, 4T1; assay type: cell-based; settings: Mus musculus, 48 h, 0–50 μM, read-out: Antiproliferative activity IC50 ± SEM, 4T1
Method: as §1

[2] = system: MCF-7, MDA-MB-231, 4T1, L929 and HUVEC cell lines; assay: MTT antiproliferative assay, statements over all five tested cell lines; assay type: cell-based; settings: range over all five tested cell lines, read-out: IC50 values ranging over the tested cell lines
Method: as §1

[3] = system: human umbilical vein endothelial HUVEC; assay: MTT antiproliferative assay, HUVEC; assay type: cell-based; settings: Homo sapiens, HUVEC, 48 h, 0–50 μM, read-out: Antiproliferative activity IC50 ± SEM, HUVEC
Method: as §1

[4] = system: human breast cancer MDA-MB-231; assay: MTT antiproliferative assay, MDA-MB-231; assay type: cell-based; settings: for IC50: Homo sapiens, MDA-MB-231, MTT, 48 h, 0–50 μM, read-out: Antiproliferative activity IC50 ± SEM, MDA-MB-231; for SI, selectivity index: SI = IC50 (L929)/IC50 (MDA-MB-231)
Method: as §1

MDA-MB-231 cells [5] = assay: Apoptosis analysis by annexin V-FITC/PI staining (flow cytometry); assay type: cell-based, human; settings: 48 h; for apoptotic ratio: control 13.7%
Method: Apoptosis induced by TMPH compound 12–9 was evaluated by annexin V-FITC/PI staining. Briefly, MDA-MB-231 cells in the logarithmic growth phase were cultured in a six-well plate and incubated for 24 h at 37°C under a humid atmosphere containing 5% CO2. […] The incubated cells were washed twice with PBS, digested by trypsin, and centrifuged at 1,000 rpm for 5 min. The collected MDA-MB-231 cells were transferred to a 1.5-ml tube and resuspended in a solution of 200 μl of annexin V-FITC and 5 μl of PI. After incubation in a dark environment (covered with aluminum foil) for 15 min at room temperature, the collected cells were evaluated by flow cytometry (CyFlow®Cube 6, Sysmex). The apoptosis analysis data were shown as a pseudo color map and analyzed by FlowJo software.

MDA-MB-231 cells [6] = assay: Clonal formation assay of MDA-MB-231 cells; assay type: cell-based, human; settings: 0.5, 1.0 and 2.0 μM for 10 days
Method: Human breast cancer MDA-MB-231 cells were cultured in a six-well plate with 1,500 cells per well and incubated for 24 h at 37°C under a humid atmosphere containing 5% CO2. Then, the MDA-MB-231 cells were incubated with compound 12–9 at final concentrations of 0, 0.5, 1.0, and 2.0 μM for 10 days. The treated cells were washed with PBS and fixed with 4% paraformaldehyde for 15 min at room temperature. Then, the end product of the cell colonies was visualized by staining with 0.1% crystal violet for 10 min. The images were photographed using a handy camera, and the number of cell colonies was assessed using open Image J software (National Institutes of Health). Each experiment was repeated three times. A group of >50 cells was defined as one colony formation.

MDA-MB-231 cells [7] = assay: Hoechst 33 342 staining of MDA-MB-231 cells; assay type: cell-based, human; settings: 1.0 μM, 48 h
Method: The induction of apoptosis by compound 12–9 was visually evaluated in MDA-MB-231 cells by Hoechst 33 342 staining. The test cells were transferred to six-well plates at a density of 1 × 10^5 cells. […] Then, the MDA-MB-231 cells were stained with Hoechst 33 342 solution (10 μg/ml in the culture medium, Beyotime Institute of Biotechnology, Shanghai, China) at 37°C in a dark room for 20 min after incubation with the test compound 12–9. The cells were then washed twice with a serum-free medium to remove the leftover dye. The apoptotic cells stained by Hoechst 33 342 were imaged using CLSM (Carl-Zeiss LSM 710).

Compound	IC50 (mouse fibroblast L929)	IC50 [1]	IC50 (mouse breast cancer 4T1)	IC50 [2]	IC50 [3]	IC50 [4]	SI, selectivity index [4]	further results
Cc1nc(C)c(C(=O)NCCCCCCCCCCCCNC(=O)c2cnc3ccccc3c2)nc1C [12–5]	4.18 ± 0.05 µM	1.36 ± 0.06 µM	3.5 ± 0.06 µM	1.61 to 19.5 µM	11.4 ± 0.44 µM	2.39 ± 0.12 µM	1.75	
Cc1nc(C)c(C(=O)NCCCCCCCCCCCCNC(=O)c2ccc3ncccc3c2)nc1C [12–6]	5.35 ± 0.17 µM	2.04 ± 0.03 µM	4.18 ± 0.09 µM	1.61 to 19.5 µM	7.03 ± 0.05 µM	1.98 ± 0.15 µM	2.70	
Cc1nc(C)c(C(=O)NCCCCCCCCCCCCNC(=O)c2ccc3cc[nH]c3c2)nc1C [12–9]	3.16 ± 0.13 µM	1.11 ± 0.15 µM	1.16 ± 0.18 µM	1.61 to 19.5 µM	3.82 ± 0.24 µM	0.84 ± 0.02 µM	3.76	Q1, necrotic cells (annexin V−/PI+) (MDA-MB-231 cells [5]; 0.5 μM): 0.20; Q2, late apoptotic or necrotic cells (annexin V+/PI+) (MDA-MB-231 cells [5]; 0.5 μM): 15.2; Q3, early apoptotic cells (annexin V+/PI−) (MDA-MB-231 cells [5]; 0.5 μM): 8.76; Q4, living cells (annexin V−/PI−) (MDA-MB-231 cells [5]; 0.5 μM): 75.9; apoptotic ratio (MDA-MB-231 cells [5]; 0.5 μM): 23.96%; Q1, necrotic cells (annexin V−/PI+) (MDA-MB-231 cells [5]; 1.0 μM): 0.37; Q2, late apoptotic or necrotic cells (annexin V+/PI+) (MDA-MB-231 cells [5]; 1.0 μM): 24.8; Q3, early apoptotic cells (annexin V+/PI−) (MDA-MB-231 cells [5]; 1.0 μM): 7.84; Q4, living cells (annexin V−/PI−) (MDA-MB-231 cells [5]; 1.0 μM): 67.0; apoptotic ratio (MDA-MB-231 cells [5]; 1.0 μM): 32.64%; Q1, necrotic cells (annexin V−/PI+) (MDA-MB-231 cells [5]; 2.0 μM): 1.03; Q2, late apoptotic or necrotic cells (annexin V+/PI+) (MDA-MB-231 cells [5]; 2.0 μM): 35.3; Q3, early apoptotic cells (annexin V+/PI−) (MDA-MB-231 cells [5]; 2.0 μM): 11.6; Q4, living cells (annexin V−/PI−) (MDA-MB-231 cells [5]; 2.0 μM): 52.1; apoptotic ratio (MDA-MB-231 cells [5]; 2.0 μM): 46.9%; colony formation versus untreated control (MDA-MB-231 cells [6]): significantly fewer and smaller; apoptotic morphology, Hoechst 33 342 staining (MDA-MB-231 cells [7]): appeared shrunken and showed strong blue fluorescence
Cc1nc(C)c(C(=O)NCCCCCCCCCCCCNC(=O)C=Cc2ccc(Cl)cc2)nc1C [12–10]	3.82 ± 0.07 µM	2.09 ± 0.06 µM	1.63 ± 0.03 µM	1.61 to 19.5 µM	12.37 ± 0.09 µM	2.42 ± 0.06 µM	1.58	
COc1cc(C=CC(=O)NCCCCCCCCCCCCNC(=O)c2nc(C)c(C)nc2C)cc(OC)c1OC [12–12]	18.9 ± 0.44 µM	2.21 ± 0.15 µM	2.69 ± 0.04 µM	1.61 to 19.5 µM	12.2 ± 0.2 µM	1.64 ± 0.12 µM	11.50	
Cc1nc(C)c(C(=O)NCCCCCCCCCCCCNC(=O)c2ccc3ccccc3c2)nc1C [12–13]	8.89 ± 0.12 µM	1.61 ± 0.08 µM	4.76 ± 0.45 µM	1.61 to 19.5 µM	10.7 ± 1.06 µM	5.01 ± 0.16 µM	1.77	
